These results are taken from patent US20250064773A1, “TARGETING ERO1 ALPHA WITH AURONE DERIVATIVES” (West Virginia University Board of Governors on behalf of …, priority 2021, published 2025).

The structures appear in SMILES notation. Like-named read-outs stand apart in the source and are kept apart here.

The test system of experiment [1] is PC-9 ERO1α KO clones (CRISPR). Nature of the experiment: MTT viability assay, PC-9 ERO1α knockout clones. In kind it is cell-based. As to conditions: 72 hours. On the procedure:
We utilized an MTT assay to determine the potency of the compounds for inhibiting cell growth. […] We next asked whether T151742 induced inhibition of cell growth was dependent on ERO1α expression. As shown in FIG. 6C two ERO1α deleted clones in the PC-9 cell line were isolated. Using an MTT assay to determine overall cellar viability, a non-targeted control (scramble), and both ERO1α knockout clones was subjected to treatment with T151742 for 72 hours (See FIG. 6D). […] Though only slight differences were observed between T151742 and EN-460 we tested the effects of these compounds in a clonogenic assay which is a better test for inhibition of self-renewal.
Cell Lines: PC-9 cell line used was obtained from Sigma Aldrich and grown in RPMI 1640 medium with 10% fetal bovine serum and 1% penicillin/streptomycin. HCC4006, U266, MM1.s, and Beas-2B cell lines were obtained from ATCC and cultured in either RPMI 1640 or DMEM with 10% fetal bovine serum and 1% penicillin/streptomycin. All cell lines were also checked for mycoplasma every six months and subjected to short tandem repeat (STR) analysis for cell line validation. CRISPR Cas9: CRISPR Guide RNA 2 targeting ERO1α and CRISPR Guide RNA 4 were purchased from Genscript in the pLentiCRISPR V2 plasmid containing puromycin/ampicillin selection marker. Lentivirus was made from HEK 293T cells by co-transfection with GuideRNA of interest, pVSVG, and pPAX2 plasmids. Lentivirus was collected after 48 hours and concentrated using 40% PEG8000. […] Plate was then read on the BioTek Cytation 5 at 530/590 nm. […] Plate was then read at 570 nm. Treated wells were all compared to DMSO control wells to calculate percent growth inhibition and the IC50 was calculated using GraphPad (log(inhibitor) vs growth inhibition). […] Images were then quantified using ImageJ. […] Cells were aliquoted at 1 million cells per PCR tube in PBS and heated in Bio-Rad T100 thermal cycler at indicated temperatures (RT, 46° C., 48° C., 50° C., 52° C., 54° C., 56°, 58° C., and 60° C.) for 3 minutes and aggregation temperature was determined by western blot analysis. […]
On the technique in general: Tetrazolium dyes change colour on reduction, which living cells bring about.

Experiment [2] addresses T1, MAO-B (Homo sapiens, UniProt P27338).
T1 sequence (P27338 1-520): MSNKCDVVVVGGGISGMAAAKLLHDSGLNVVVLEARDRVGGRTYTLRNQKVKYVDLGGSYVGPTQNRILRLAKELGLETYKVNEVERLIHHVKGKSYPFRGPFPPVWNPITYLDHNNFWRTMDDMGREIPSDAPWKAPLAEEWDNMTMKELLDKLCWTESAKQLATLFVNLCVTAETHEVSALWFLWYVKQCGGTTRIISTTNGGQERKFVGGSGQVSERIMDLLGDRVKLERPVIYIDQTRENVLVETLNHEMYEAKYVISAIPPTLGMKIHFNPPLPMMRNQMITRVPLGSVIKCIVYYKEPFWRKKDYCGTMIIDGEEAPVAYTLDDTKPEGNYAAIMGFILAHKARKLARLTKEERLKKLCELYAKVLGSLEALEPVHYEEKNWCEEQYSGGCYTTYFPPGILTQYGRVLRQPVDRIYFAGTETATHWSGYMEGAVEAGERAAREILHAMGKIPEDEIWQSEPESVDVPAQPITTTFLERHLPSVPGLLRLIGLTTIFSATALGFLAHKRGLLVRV
As to conditions: cited from earlier work.

For `CN(C)c1ccc(/C=C2\Oc3cc(O)ccc3C2=O)cc1` [Compound T151742], the IC50 – broadly, the midpoint of a concentration-inhibition curve – in experiment [1] (read-out: IC50, MTT assay, PC-9 ERO1α KO Clone 1) is 32.2 ± 1.09 µM; in experiment [1] (read-out: IC50, MTT assay, PC-9 ERO1α KO Clone 2) it was 41.5 ± 1.08 µM. Moreover, the “fold more resistant, ERO1α deleted cells compared to the control cell line” value in experiment [1] (MTT) is 2-3 fold. In addition, the “inhibition of / activity against MAO-B” value in experiment [2] is on record as “showed activity”.
